Patent US8071531B2, “Flavor and fragrance composition” (Takasgo International Corporation, priority 2006, dated 2011)

Assay: Oral sensory evaluation of an aqueous solution by seven expert panelists
Format: in vivo
Method: Oral evaluation of an aqueous solution of (1R,2R,4R)-1-(2-hydroxy-4-methylcyclohexyl)ethanone obtained in Synthesis Example 1 was carried out by seven expert panelists.

In the case of `CC(=O)[C@@H]1CC[C@@H](C)C[C@H]1O` [(1R,2R,4R)-1-(2-hydroxy-4-methylcyclohexyl)ethanone], the “appearance of refreshing feeling and taste” value (aqueous solution, oral evaluation) is reported as “relatively rapid with clear refreshing feeling without unpleasant taste” and the “Cool and refreshing feeling of the aqueous solution, equivalent concentration of menthol” value (at a concentration of 50 ppm in aqueous solution) is reported as 10 ppm.
